Patent US9587005B2 (priority 2010, dated 2017)
*1 amine or outer side, *2 acyl side, *3 side chain or, on linkers, in order; H or OH if unused. Where a SMILES comes first, the peptide text is derived from it. Bridges are numbered along the chain shown (N, C = ends). Side-chain parts run from the residue outwards. [ ]: non-standard residue; d: D form. The star is where a group is joined. Phe(4-NH2) = Nc1ccc(C[C@H](N)C(=O)O)cc1; γGlu = O=C(O)[C@H](CCC(=O)[*:2])N[*:1]; Palmitoyl = CCCCCCCCCCCCCCCC(=O)*; Aib = CC(C)(N)C(=O)O

Tests used:
GIP receptor = target: T1, GIP receptor (Homo sapiens, UniProt P48546); assay: cAMP induction, firefly luciferase reporter assay in HEK293 cells co-transfected with GIP receptor; assay type: cell-based; conditions: EC50 (nM) at GIP Receptor
T1 sequence (P48546 22-466): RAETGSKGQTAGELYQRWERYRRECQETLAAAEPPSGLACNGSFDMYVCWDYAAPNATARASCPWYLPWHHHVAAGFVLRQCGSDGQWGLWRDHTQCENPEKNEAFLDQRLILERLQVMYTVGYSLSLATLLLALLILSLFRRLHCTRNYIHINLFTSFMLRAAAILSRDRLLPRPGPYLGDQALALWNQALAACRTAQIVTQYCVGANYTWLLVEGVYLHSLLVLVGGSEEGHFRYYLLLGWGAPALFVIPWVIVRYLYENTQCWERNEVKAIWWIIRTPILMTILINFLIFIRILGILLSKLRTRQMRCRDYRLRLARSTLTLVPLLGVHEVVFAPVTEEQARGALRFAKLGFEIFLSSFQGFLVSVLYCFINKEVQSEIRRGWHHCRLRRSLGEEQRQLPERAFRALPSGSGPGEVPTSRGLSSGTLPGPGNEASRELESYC

GLP-1 receptor = target: T2, GLP-1 receptor (Homo sapiens, UniProt P43220); assay: cAMP induction, firefly luciferase reporter assay in HEK293 cells co-transfected with GLP-1 receptor; assay type: cell-based; conditions: EC50 (nM) at GLP-1 Receptor
T2 construct: expressed in transfected cells; host or cells: HEK293
Excerpt: This example describes an exemplary method of testing the biological activity of the peptides of the present disclosures, which method involves assaying cAMP synthesis.

[1] = Table 4, Example 9, composite of multiple different activity assays

T2 sequence (P43220 24-463): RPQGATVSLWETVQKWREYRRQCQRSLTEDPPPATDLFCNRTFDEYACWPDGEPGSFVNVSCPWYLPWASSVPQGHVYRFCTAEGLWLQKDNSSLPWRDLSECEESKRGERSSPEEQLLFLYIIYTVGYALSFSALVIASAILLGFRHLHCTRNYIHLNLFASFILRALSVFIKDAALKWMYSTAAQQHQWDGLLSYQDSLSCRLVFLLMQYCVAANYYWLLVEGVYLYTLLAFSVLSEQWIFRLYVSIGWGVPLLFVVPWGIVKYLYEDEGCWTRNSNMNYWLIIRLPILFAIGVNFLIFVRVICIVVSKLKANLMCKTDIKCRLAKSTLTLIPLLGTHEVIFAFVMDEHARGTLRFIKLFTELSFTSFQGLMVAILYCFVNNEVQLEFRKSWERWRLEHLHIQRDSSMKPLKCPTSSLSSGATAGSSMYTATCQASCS

Structure (SMILES) | EC50 (GIP receptor; Table 9, Example 15) | EC50 (GLP-1 receptor; Table 9, Example 15) | EC50 (GIP receptor; Table 6, Example 12) | EC50 (GLP-1 receptor; Table 6, Example 12) | also measured
CCCCCCCCCCCCCCCC(=O)N[C@@H](CCC(=O)N[C@@H](CCC(=O)Nc1ccc(C[C@H](NC(=O)[C@H](CC(=O)O)NC(=O)[C@H](CO)NC(=O)[C@@H](NC(=O)[C@H](Cc2ccccc2)NC(=O)[C@@H](NC(=O)CNC(=O)[C@H](CCC(=O)O)NC(=O)C(C)(C)NC(=O)[C@@H](N)Cc2ccc(O)cc2)[C@@H](C)O)[C@@H](C)O)C(=O)N[C@@H](CO)C(=O)N[C@H](C(=O)N[C@@H](Cc2ccc(O)cc2)C(=O)N[C@@H](CC(C)C)C(=O)N[C@@H](CC(=O)O)C(=O)N[C@@H](CCCCN)C(=O)N[C@@H](CCC(N)=O)C(=O)N[C@@H](C)C(=O)N[C@@H](C)C(=O)NC(C)(C)C(=O)N[C@@H](CCC(=O)O)C(=O)N[C@@H](Cc2ccccc2)C(=O)N[C@H](C(=O)N[C@@H](CC(N)=O)C(=O)N[C@@H](Cc2c[nH]c3ccccc23)C(=O)N[C@@H](CC(C)C)C(=O)N[C@@H](CC(C)C)C(=O)N[C@@H](C)C(=O)NCC(=O)NCC(=O)N2CCC[C@H]2C(=O)N[C@@H](CO)C(=O)N[C@@H](CO)C(=O)NCC(=O)N[C@@H](C)C(=O)N2CCC[C@H]2C(=O)N2CCC[C@H]2C(=O)N2CCC[C@H]2C(=O)N[C@@H](CO)C(N)=O)C(C)C)[C@@H](C)CC)cc1)C(=O)O)C(=O)O [SEQ ID NO: 143] (H-Y[Aib]EGTFTSD[Phe(4-NH2)]([γGlu-γGlu-Palmitoyl])SIYLDKQAA[Aib]EFVNWLLAGGPSSGAPPPS-NH2; N-terminus assumed) | 0.003 nM | 0.002 nM | – | – | –
CCCCCCCCCCCCCCCC(=O)N[C@@H](CCC(=O)NCCCC[C@H](NC(=O)[C@H](CC(=O)O)NC(=O)[C@H](CO)NC(=O)[C@@H](NC(=O)[C@H](Cc1ccccc1)NC(=O)[C@@H](NC(=O)CNC(=O)[C@H](CCC(=O)O)NC(=O)C(C)(C)NC(=O)[C@@H](N)Cc1c[nH]cn1)[C@@H](C)O)[C@@H](C)O)C(=O)N[C@@H](CO)C(=O)N[C@@H](CCCCN)C(=O)N[C@@H](Cc1ccc(O)cc1)C(=O)N[C@@H](CC(C)C)C(=O)N[C@@H](CC(=O)O)C(=O)N[C@@H](CCC(=O)O)C(=O)N[C@@H](CCCNC(=N)N)C(=O)N[C@@H](CCCNC(=N)N)C(=O)N[C@@H](C)C(=O)NC(C)(C)C(=O)N[C@@H](CCC(=O)O)C(=O)N[C@@H](Cc1ccccc1)C(=O)N[C@H](C(=O)N[C@@H](CCC(N)=O)C(=O)N[C@@H](Cc1c[nH]c2ccccc12)C(=O)N[C@@H](CC(C)C)C(=O)N[C@@H](CC(C)C)C(=O)N[C@@H](CC(=O)O)C(=O)N[C@H](C(N)=O)[C@@H](C)O)C(C)C)C(=O)O [compound 40] (H-H[Aib]EGTFTSDK([γGlu-Palmitoyl])SKYLDERRA[Aib]EFVQWLLDT-NH2; N-terminus assumed) | – | – | – | – | EC50 (GIP receptor; [1]): 0.024 nM; EC50 (GLP-1 receptor; [1]): 0.006 nM
CC[C@H](C)[C@H](NC(=O)[C@H](CO)NC(=O)[C@H](Cc1ccc(O)cc1)NC(=O)[C@H](CC(=O)O)NC(=O)[C@H](CO)NC(=O)[C@@H](NC(=O)[C@H](Cc1ccccc1)NC(=O)[C@@H](NC(=O)CNC(=O)[C@H](CCC(N)=O)NC(=O)C(C)(C)NC(=O)[C@@H](N)Cc1c[nH]cn1)[C@@H](C)O)[C@@H](C)O)C(=O)N[C@@H](Cc1ccc(O)cc1)C(=O)N[C@@H](CC(C)C)C(=O)N[C@@H](CC(=O)O)C(=O)N[C@@H](CCCCN)C(=O)N[C@@H](CCC(N)=O)C(=O)N[C@@H](C)C(=O)N[C@@H](C)C(=O)NC(C)(C)C(=O)N[C@@H](CCC(=O)O)C(=O)N[C@@H](Cc1ccccc1)C(=O)N[C@H](C(=O)N[C@@H](CC(N)=O)C(=O)N[C@@H](Cc1c[nH]c2ccccc12)C(=O)N[C@@H](CC(C)C)C(=O)N[C@@H](CC(C)C)C(=O)N[C@@H](C)C(=O)NCC(=O)NCC(=O)N1CCC[C@H]1C(=O)N[C@@H](CO)C(=O)N[C@@H](CO)C(=O)NCC(=O)N[C@@H](C)C(=O)N1CCC[C@H]1C(=O)N1CCC[C@H]1C(=O)N1CCC[C@H]1C(=O)N[C@@H](CO)C(=O)N[C@@H](CS)C(N)=O)C(C)C [compound 52] (H-H[Aib]QGTFTSDYSIYLDKQAA[Aib]EFVNWLLAGGPSSGAPPPSC-NH2) | – | – | 0.006 nM | 0.005 nM | –
CCCCCCCCCCCCCCCCCCC(CC(=O)NCCCC[C@H](NC(=O)[C@H](CO)NC(=O)[C@@H]1CCCN1C(=O)[C@@H]1CCCN1C(=O)[C@@H]1CCCN1C(=O)[C@H](C)NC(=O)CNC(=O)[C@H](CO)NC(=O)[C@H](CO)NC(=O)[C@@H]1CCCN1C(=O)CNC(=O)CNC(=O)[C@H](C)NC(=O)[C@H](CC(C)C)NC(=O)[C@H](CC(C)C)NC(=O)[C@H](Cc1c[nH]c2ccccc12)NC(=O)[C@H](CC(N)=O)NC(=O)[C@@H](NC(=O)[C@H](Cc1ccccc1)NC(=O)[C@H](CCC(=O)O)NC(=O)C(C)(C)NC(=O)[C@H](C)NC(=O)[C@H](C)NC(=O)[C@H](CCC(N)=O)NC(=O)[C@H](CCCCN)NC(=O)[C@H](CC(=O)O)NC(=O)[C@H](CC(C)C)NC(=O)[C@H](Cc1ccc(O)cc1)NC(=O)[C@@H](NC(=O)[C@H](CO)NC(=O)[C@H](Cc1ccc(O)cc1)NC(=O)[C@H](CC(=O)O)NC(=O)[C@H](CO)NC(=O)[C@@H](NC(=O)[C@H](Cc1ccccc1)NC(=O)[C@@H](NC(=O)CNC(=O)[C@H](CCC(=O)O)NC(=O)C(C)(C)NC(=O)[C@@H](N)Cc1ccc(O)cc1)[C@@H](C)O)[C@@H](C)O)[C@@H](C)CC)C(C)C)C(=O)NCC(N)=O)C(=O)O (stereo partly shown) [SEQ ID NO: 142] | 0.001 nM | 0.004 nM | – | – | –
CC[C@H](C)[C@H](NC(=O)[C@H](CO)NC(=O)[C@H](Cc1ccc(O)cc1)NC(=O)[C@H](CC(=O)O)NC(=O)[C@H](CO)NC(=O)[C@@H](NC(=O)[C@H](Cc1ccccc1)NC(=O)[C@@H](NC(=O)CNC(=O)[C@H](CCC(N)=O)NC(=O)C(C)(C)NC(=O)[C@@H](N)Cc1ccc(O)cc1)[C@@H](C)O)[C@@H](C)O)C(=O)N[C@@H](Cc1ccc(O)cc1)C(=O)N[C@@H](CC(C)C)C(=O)N[C@@H](CC(=O)O)C(=O)N[C@@H](CCCCN)C(=O)N[C@H]1CCC(=O)NCCCC[C@@H](C(=O)N[C@@H](Cc2ccccc2)C(=O)N[C@H](C(=O)N[C@@H](CC(N)=O)C(=O)N[C@@H](Cc2c[nH]c3ccccc23)C(=O)N[C@@H](CC(C)C)C(=O)N[C@@H](CC(C)C)C(=O)N[C@@H](C)C(=O)NCC(=O)NCC(=O)N2CCC[C@H]2C(=O)N[C@@H](CO)C(=O)N[C@@H](CO)C(=O)NCC(=O)N[C@@H](C)C(=O)N2CCC[C@H]2C(=O)N2CCC[C@H]2C(=O)N2CCC[C@H]2C(=O)N[C@@H](CO)C(=O)N[C@@H](CS)C(N)=O)C(C)C)NC(=O)C(C)(C)NC(=O)[C@H](C)NC(=O)[C@H](C)NC1=O [compound 58] (H-Y[Aib]QGTFTSDYSIYLDKEAA[Aib]KFVNWLLAGGPSSGAPPPSC-NH2; lactam 17-21) | – | – | 0.005 nM | 0.014 nM | –
